Source: PubChem BioAssay (NCI)
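Compound exposure: 48 hours, 5 concentrations, 96-well plates. GI50 marks 50% less growth. At the TGI there is no net growth.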

Columns and labels:
Experiment in all cases: NCI-60 cell line screen, 48 h
LOX IMVI melanoma = system: LOX IMVI melanoma
HCT-15 colon = system: HCT-15 colon
RXF-631 renal = system: RXF-631 renal
IGROV1 ovarian = system: IGROV1 ovarian
HOP-18 NSCLC = system: HOP-18 NSCLC
OVCAR-8 ovarian = system: OVCAR-8 ovarian
UO-31 renal = system: UO-31 renal
KM12 colon = system: KM12 colon

Structure (SMILES)	TGI (LOX IMVI melanoma)	TGI (HCT-15 colon)	TGI (RXF-631 renal)	TGI (IGROV1 ovarian)	TGI (HOP-18 NSCLC)	TGI (OVCAR-8 ovarian)	TGI (UO-31 renal)	TGI (KM12 colon)	GI50 (LOX IMVI melanoma)	GI50 (HCT-15 colon)	GI50 (RXF-631 renal)	GI50 (IGROV1 ovarian)	GI50 (HOP-18 NSCLC)	GI50 (OVCAR-8 ovarian)	GI50 (UO-31 renal)	GI50 (KM12 colon)
CCOc1ccc(/C=N\N2C(=O)c3ccccc3C2=O)cc1	> 100 µM	> 100 µM	> 100 µM	> 100 µM	> 100 µM	> 100 µM	> 100 µM	> 100 µM								
CCOC(=O)C/C(N)=C(\C#N)C(=O)OCC	> 100 µM	> 100 µM	> 100 µM	> 100 µM	> 100 µM	> 100 µM	> 100 µM	> 100 µM								
CN=c1ss/c(=N\C(=S)N(C)C)n1C1CCCCC1	> 31.6 µM	> 31.6 µM	> 100 µM	> 31.6 µM	> 31.6 µM	> 31.6 µM	> 31.6 µM	> 31.6 µM								
CC(N)CN.CC(N)CN.[Cl-].[O]=[Os+2]=[O] (centres undefined)	> 100 µM	> 100 µM	> 100 µM	> 100 µM	> 100 µM	> 100 µM	> 100 µM	> 100 µM	27 µM	> 100 µM	96.9 µM	> 100 µM	25.9 µM	96.2 µM	93.3 µM	> 100 µM
O=c1c2cc(Br)ccc2[nH]c(=S)n1-c1ccccc1	> 100 µM	> 100 µM	> 100 µM	> 100 µM	> 100 µM	> 100 µM	> 100 µM	> 100 µM								
COc1ccc(/C=c2\sc3nnc(CCC(=O)Nc4cccc(C(F)(F)F)c4)n3c2=O)cc1	> 100 µM	> 100 µM	> 100 µM	> 100 µM	> 100 µM	> 100 µM	> 100 µM	> 100 µM								
O=S1c2ccccc2N=C(c2ccc3ccccc3c2)CC1c1ccccc1F (centres undefined)	> 100 µM	> 100 µM	> 100 µM	> 100 µM	> 100 µM	> 100 µM	> 100 µM	> 100 µM								
COc1cc(-c2ccccc2)c(OC)cc1CCl		> 100 µM	> 100 µM	> 100 µM	> 100 µM	> 100 µM	> 100 µM	> 100 µM								
Cc1ccc(C)c(NC(=O)C(=O)CC(=O)c2cccc3ccccc23)c1	> 100 µM	> 100 µM	> 100 µM	> 100 µM	> 100 µM	> 100 µM	> 100 µM	> 100 µM								
